Data from patent US20220096510A1, “METHOD AND PHARMACOLOGICAL COMPOSITION FOR THE PREVENTION OF RECURRENT INFECTIONS CAUSED BY CLOSTRIDIUM DIFFICILE” (UNIVERSIDAD ANDRÉS BELLO, priority 2018, published 2022).

Tests used:
C. difficile toxin TcdB = conditions: patients with CDI; cited from earlier work
C. difficile spores = type: in vivo, C57BL/6 mice; conditions: day 2; nystatin 8,500 IU/kg oral from day -1
C. difficile [1] = conditions: cited from earlier work; for patients who presented late R-CDI: after 28 days
C. difficile [2] = tested on: C. difficile
Source text: Mice were infected and dosed with an oral solution comprising a combination of nystatin and vancomycin starting from day 3 after infection (time of manifestation of the clinical symptoms).
In this sense, we studied the effect of a formulation comprising nystatin together with vancomycin administered from day 3.

[3] = tested on: C. difficile strain R20291; assay: Murine R-CDI model, intraperitoneal nystatin before and during CDI with oral vancomycin (Example 4)
T84 cells = assay: Cell viability by the trypan blue and MTT methods, T84; type: cell-based; conditions: results not shown
Caco-2 cells = assay: Cell viability by the trypan blue and MTT methods, Caco-2; type: cell-based; conditions: results not shown
[4] = tested on: C. difficile R20291 spores in Caco-2 cells; assay: Internalized (taurocholate- and ethanol-resistant) spores in infected Caco-2 cells by the seeding method; type: cell-based; conditions: 30 μM nystatin before and during infection; then 0.1% taurocholate 1 h and 70% ethanol
C. difficile [5] = conditions: 10 mM; cited from earlier work
C. difficile [6] = conditions: used after vancomycin; cited from earlier work

## CN[C@H](CC(C)C)C(=O)N[C@H]1C(=O)N[C@@H](CC(N)=O)C(=O)N[C@H]2C(=O)N[C@H]3C(=O)N[C@H](C(=O)N[C@H](C(=O)O)c4cc(O)cc(O)c4-c4cc3ccc4O)[C@H](O)c3ccc(c(Cl)c3)Oc3cc2cc(c3O[C@@H]2O[C@H](CO)[C@@H](O)[C@H](O)[C@H]2O[C@H]2C[C@](C)(N)[C@H](O)[C@H](C)O2)Oc2ccc(cc2Cl)[C@H]1O [vancomycin]
C. difficile toxin TcdB
  R-CDI rates: 27%
C. difficile spores
  levels of spores in stools: 3.8 logarithmic units
C. difficile [1]
  patients who presented late R-CDI: 35.5%
  patients who presented early recurrences: 27%
C. difficile [2]; after discontinuing treatment on day 8, nystatin 4,250 and 17,000 IU/kg
  weight loss on day 11, the day of recurrence: suffered a weight loss
C. difficile [2]; vancomycin 50 mg/kg alone, 5 days from day 3
  mice presenting recurrence: 75%
[3]; 5 days after finishing vancomycin 50 mg/kg, 7 days
  mice presenting recurrence: 100%

## C[C@@H]1[C@H](O)[C@@H](C)/C=C/C=C/CC/C=C/C=C/C=C/C=C/C(O[C@H]2O[C@H](C)[C@@H](O)[C@H](N)[C@@H]2O)CC2O[C@](O)(CC(O)C(O)CCC(O)CC(O)CC(O)CC(=O)O[C@H]1C)CC(O)C2C(=O)O (stereo partly shown) [nystatin]
T84 cells
  cell viability: no differences
[3]; nystatin 12,000 IU/kg I.P. with vancomycin 50 mg/kg oral
  weight increase on day 11 in respect of day 0: 6%
[3]; nystatin 12,000 IU/kg I.P. with vancomycin 50 mg/kg oral, versus vancomycin alone
  weight variation versus control group: no significant weight variations
Caco-2 cells
  cell viability: no differences
[4]
  amount of CFU counted (ethanol-resistant spores): significant decrease

## CCc1c(Cl)c(O)c(Cl)c(O)c1C(=O)O[C@H]1[C@H](O)[C@H](OC)[C@H](OC/C2=C\C=C\C[C@H](O)/C(C)=C/[C@H](CC)[C@@H](O[C@@H]3OC(C)(C)[C@@H](OC(=O)C(C)C)[C@H](O)[C@@H]3O)/C(C)=C/C(C)=C/C[C@@H]([C@@H](C)O)OC2=O)O[C@@H]1C [fidaxomicin]
C. difficile [1]
  patients who presented late R-CDI: 19.7%
  patients who presented early recurrences: 8%

## N[C@@H](CS)C(=O)O [cysteine]
C. difficile [5]
  toxin production in vitro: reduces toxin production

## CO[C@H]1/C=C/O[C@@]2(C)Oc3c(C)c(O)c4c(O)c(c5c(nc6cc(C)ccn65)c4c3C2=O)NC(=O)/C(C)=C\C=C\[C@H](C)[C@H](O)[C@@H](C)[C@@H](O)[C@@H](C)[C@H](OC(C)=O)[C@@H]1C [rifaximin]
C. difficile [6]
  efficiency rate: 64%
